Results on four molecules are retold here after article PMC11184554, “Nature-Inspired Gallinamides Are Potent Antischistosomal Agents: Inhibition of the Cathepsin B1 Protease Target and Binding Mode Analysis” (ACS Infectious Diseases, 2024).

One assay relates to recombinant SmCB1. Nature of the assay: Kinetic inhibition assay with recombinant SmCB1 (k2nd). Format: biochemical, S. mansoni. The note with it: for SmCB1 inhibition k2nd: second-order rate constant (kinact/Ki), substrate Cbz–Phe–Arg–AMC, pH 5.5, 37 °C, mean ± SE. The procedure: Gallinamide A and a series of its 18 derivatives were evaluated in vitro as inhibitors of SmCB1 to explore the binding specificities of the subsites in the enzyme’s active site. The gallinamide A inhibitor scaffold can be defined by positions P4 through P1′ (Schechter and Berger nomenclature[37]), which were assigned according to the binding mode analysis (see the crystallographic section below). The substituents R4, R1, and R1′ introduced on the scaffold (Table 2) are numbered according to the respective positions P4, P1, and P1′. The compounds’ second-order rate constants (k2nd) were determined using a kinetic inhibition assay with recombinant SmCB1 and the substrate, Cbz–Phe–Arg–AMC.
Inhibition measurements were performed in duplicate in 96-well microplates (100 μL assay volume) at 37 °C. SmCB1 (40 pM) was added to a mixture of the fluorogenic substrate Cbz–Phe–Arg–AMC (25 μM) and an inhibitor (0–100 μM) in 0.1 M sodium acetate, pH 5.5, containing 2.5 mM dithiothreitol and 0.01% (w/v) BRIJ 35. Substrate hydrolysis was monitored in an Infinite M1000 microplate reader (Tecan) at excitation and emission wavelengths of 360 and 465 nm, respectively, for up to 150 min. An observed first-order rate constant, kobs, was calculated at each inhibitor concentration by fitting the progress curve to the equation P = vi/kobs(1 – exp(−kobst)) + d where P is the product formation, t is the reaction time, vi is the initial velocity, and d is the offset. […] The second-order rate constant, k2nd, (and SE value) was determined by fitting the linear equation kobs = (k2nd[I])/(1 + [S]/Km), where [S] is the substrate concentration, [I] is the inhibitor concentration, and KM is the Michaelis–Menten constant. The KM value determined for SmCB1 was 25 μM. […] To determine IC50 values, SmCB1 (40 pM) was preincubated with the inhibitor (0–100 μM) for 30 min under assay conditions as described above, followed by the addition of the fluorogenic substrate Cbz–Phe–Arg–AMC (20 μM). Substrate hydrolysis was monitored for 30 min in a microplate reader as described above. The IC50 values were determined by nonlinear regression using GraFit software (Erithacus Software).

Assay [1] deals with S. mansoni newly transformed schistosomula (NTS). The experiment in a line: Phenotypic screen with newly transformed schistosomula (NTS). Format: cell-based. The procedure: The same 19 gallinamides were screened for bioactivity against S. mansoni newly transformed schistosomula (NTS), the postinvasive parasite stage that feeds on host blood.[40] In this primary assay, the NTS were exposed to 1 and 10 μM compounds for 3 days, and the resulting phenotypic responses were graded from 0 through 4, i.e., the least to the most severe (Table 2 and Table S1). […] The effects were more pronounced after 72 h, and when the higher, 10 μM, compound concentration was used (Table S1). […] Also, compared to gallinamide A and its analogs, 3 has an additional N-terminal N-acetamide modification that further reduces bioactivity (Table 2).
Phenotypic screens employed S. mansoni newly transformed schistosomula (NTS) and adults and were carried out as described previously.[18]−[20],[42] NTS were prepared by mechanically transforming infective larvae (cercariae).[40],[42] NTS (200–300 parasites) were incubated in flat-bottomed 96-well plates in 200 μL of Basch Medium 169 containing 5% (v/v) FBS, 100 U mL^–1 penicillin and 100 μg mL^–1 streptomycin (complete Basch medium)[75] at 5% CO2 and 37 °C.[76],[77] Inhibitors were added at final concentrations of 1 and 10 μM, and changes in phenotypes were observed under an inverted microscope every 24 h for up to 72 h.
A constrained nomenclature of “descriptors”[39],[42] was used to record the multiple and dynamic changes in movement, shape, and translucence that the schistosome parasite is capable of (Table S1 for NTS and Table S3 for adults). These descriptors were then converted into an ordinal “severity score” system ranging from 0 (no effect) to 4 (maximum effect), which allows for the relative comparison of compound effects.

The mark [2] stands for this setting: Phe in R1 changed from S to R configuration.
The mark [3] stands for this setting: 1 μM compound, 24 h, scale 0 (no effect) to 4 (most severe).
Where [4] appears, read: 1 μM compound, 48 h, scale 0 to 4.
The mark [5] stands for this setting: 10 µM compound, 24 h, scale 0 to 4.
The mark [6] stands for this setting: 10 µM compound, 48 h, scale 0 to 4.
Setting [7] is: 10 µM compound, 72 h, scale 0 to 4.
[8] abbreviates: 1 μM compound, 72 h, scale 0 to 4.

Regarding `CCC(C)C(C(=O)OC(CC(C)C)C(=O)NC(CC(C)C)C(=O)NC(C=CC(=O)N1C(=O)C=C(OC)C1Cc1ccccc1)Cc1ccccc1)N(C)C` (centres unmarked) [compound 15], the “decrease in inhibition vs 7” value with recombinant SmCB1 (setting [2]) is given as 23 fold. In addition, the “improvement of inhibition vs 18” value with recombinant SmCB1 (Phe in R1′ changed from S to R configuration) is given as 2.6 fold. The “SmCB1 inhibition k2nd” value with recombinant SmCB1 came out at 41.6 ± 1.6 M^–1·s^–1. For the same molecule, the schistosomula severity score in assay [1] (setting [3]) stood at 0; in assay [1] (setting [4]), 3; in assay [1] (setting [5]) it was 2; in assay [1] (setting [6]) it was 4; in assay [1] (setting [7]), 4. Further, in assay [1] (10 µM compound, 24 h), the schistosomula phenotype descriptors result is listed as “Dark, R”.
For the molecule `CCC(C)C(C(=O)OC(CC(C)C)C(=O)NC(CC(C)C)C(=O)NC(C)CCC(=O)N1C(=O)C=C(OC)C1C)N(C)C` (centres unmarked) [compound 16], the “decrease in k2nd” value with recombinant SmCB1 (absence of a double bond in the acrylamide group) was 2 orders of magnitude. For the same molecule, the “SmCB1 inhibition k2nd” value in the assay with recombinant SmCB1 is 36.9 ± 0.3 M^–1·s^–1. The schistosomula severity score in assay [1] (setting [3]) is on record as 0; in assay [1] (setting [4]) it was 0; in assay [1] (setting [8]), 0; in assay [1] (setting [5]) it was 0; in assay [1] (setting [6]), 2; in assay [1] (setting [7]), 2. The schistosomula phenotype descriptors result was “Dark, R” in assay [1] (10 µM compound, 48 h) and “Dark, R” in assay [1] (10 µM compound, 72 h).
As for `COC1=CC(=O)N(C(=O)/C=C/[C@H](Cc2ccccc2)NC(=O)[C@H](CC(C)C)NC(=O)[C@H](CC(C)C)OC(=O)[C@H](Cc2ccccc2)N(C)C)[C@H]1Cc1ccccc1` [compound 17], in the assay with recombinant SmCB1 (ratio of k2nd values, range over the compounds named), the “decrease in inhibition potency vs 8” value is given as 4.2–49 fold. For the same molecule, in the assay with recombinant SmCB1, the “SmCB1 inhibition k2nd” value was 18.2 ± 0.2 M^–1·s^–1. For the same molecule, the schistosomula severity score in assay [1] (setting [3]) was found to be 0; in assay [1] (setting [4]), 0; in assay [1] (setting [8]), 4; in assay [1] (setting [5]), 1; in assay [1] (setting [6]), 4; in assay [1] (setting [7]), 4.
Regarding `CCC(C)C(C(=O)OC(CC(C)C)C(=O)NC(CC(C)C)C(=O)NC(C=CC(=O)N1C(=O)C=C(OC)C1Cc1ccccc1)Cc1ccccc1)N(C)C` (centres unmarked) [compound 18], the “decrease in inhibition vs 14” value in the assay with recombinant SmCB1 (setting [2]) is listed as 3.4 fold. Besides, in the assay with recombinant SmCB1, the “SmCB1 inhibition k2nd” value is on record as 16.0 ± 0.2 M^–1·s^–1. The schistosomula severity score in assay [1] (setting [3]) is given as 0; in assay [1] (setting [4]), 0; in assay [1] (setting [8]) it was 0; in assay [1] (setting [5]), 1; in assay [1] (setting [6]), 4; in assay [1] (setting [7]) it was 4.
